Measurements as given in patent US8431593B2, “Heteroaryl amide derivatives” (H. Lundbeck A/S, priority 2006, dated 2013).
Like-named read-outs stand apart in the source and are kept apart here. One block for each molecule: values may come before it.

Molecular target: T1, P2X7 receptor (Homo sapiens, UniProt Q99572)
T1 construct: host or cells: SH-SY5Y
T1 sequence (Q99572 1-595): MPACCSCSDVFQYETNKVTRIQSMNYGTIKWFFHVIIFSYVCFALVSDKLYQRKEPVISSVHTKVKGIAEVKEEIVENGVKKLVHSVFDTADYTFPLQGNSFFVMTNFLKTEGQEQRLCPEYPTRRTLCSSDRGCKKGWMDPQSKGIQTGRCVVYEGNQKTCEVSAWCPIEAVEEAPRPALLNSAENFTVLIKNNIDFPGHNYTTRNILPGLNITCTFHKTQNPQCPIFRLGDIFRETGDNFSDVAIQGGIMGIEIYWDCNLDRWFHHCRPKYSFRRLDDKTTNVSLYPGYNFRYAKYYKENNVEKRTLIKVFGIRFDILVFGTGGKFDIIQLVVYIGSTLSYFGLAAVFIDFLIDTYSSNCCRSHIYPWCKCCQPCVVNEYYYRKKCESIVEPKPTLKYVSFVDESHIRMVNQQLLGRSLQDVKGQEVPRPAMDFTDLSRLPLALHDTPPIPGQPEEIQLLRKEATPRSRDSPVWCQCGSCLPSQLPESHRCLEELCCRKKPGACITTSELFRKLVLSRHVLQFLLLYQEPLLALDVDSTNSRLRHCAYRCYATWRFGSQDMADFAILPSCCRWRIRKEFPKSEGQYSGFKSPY
Experiment: P2X7 calcium mobilization assay, high throughput, antagonist activity (Example 4A)
Type: cell-based
How it was run: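 Antagonism was measured as calcium mobilization on FLIPR^TETRA after a 1 h room-temperature compound preincubation of dye-loaded cells. Baseline from no-agonist wells was subtracted from each well's maximum RFU.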

[1] = fluorescence response of cells exposed to 80 μM 2′(3′)-O-(4-benzoyl-benzoyl)adenosine 5′-triphosphate, Example 4A, read-out: IC50
[2] = SH-SY5Y cells, 50% decrease in fluorescence response to 80 μM BzATP, read-out: IC50
[3] = 50% decrease in the fluorescence response of cells exposed to 80 μM of 2′(3′)-O-(4-benzoyl-benzoyl)adenosine 5′-triphosphate, Example 4A, read-out: IC50

- IC50 [1]: < 2000 nM
SMILES: CN(CC1OCCO1)C(=O)c1cn2c(NC(=O)CC34CC5CC(CC(C5)C3)C4)cccc2n1 [Compound 368, 5-[(adamantan-l-ylacetyl)amino]-N-(1,3-dioxolan-2-ylmethyl)-N-methylimidazo[1,2-a]pyridine-2-carboxamide]

- IC50 [2]: < 2000 nM
SMILES: O=C(NCC12CC3CC(CC(C3)C1)C2)c1cccc2nc(CC(=O)N3CCCC3)cn12 [Compound 180, N-(adamantan-1-ylmethyl)-2-(2-oxo-2-pyrrolidin-1-ylethyl)imidazo[1,2-a]pyridine-5-carboxamide]

- IC50 [2]: < 2000 nM
SMILES: NC(=O)CCNC(=O)c1cn2c(C(=O)NCC34CC5CC(CC(C5)C3)C4)cccc2n1 [Compound 77, 5-N-(adamantan-1-ylmethyl)--(3-amino-3-oxopropyl)imidazo[1,2-a]pyridine-2,5-dicarboxamide]

- IC50 [2]: < 2000 nM
SMILES: CC(NC(=O)c1cn2c(C(=O)NCC34CC5CC(CC(C5)C3)C4)cccc2n1)C(N)=O (stereo not shown) [Compound 79, 5-N-(adamantan-1-ylmethyl)--(2-amino-1-methyl-2-oxoethyl)imidazo[1,2-a]pyridine-2,5-dicarboxamide]

- IC50 [3]: < 2000 nM
SMILES: Cn1cc2c(n1)CCN(C(=O)c1cn3c(C(=O)NCC45CC6CC(CC(C6)C4)C5)cccc3n1)C2 [Compound 718, N-(adamantan-1-ylmethyl)-2-[(2-methyl-2,4,6,7-tetrahydro-5H-pyrazolo[4,3-c]pyridin-5-yl)carbonyl]imidazo[1,2-a]pyridine-5-carboxamide]

- IC50 [2]: < 2000 nM
SMILES: CN(CCO)C(=O)Cc1cn2c(C(=O)NCC34CC5CC(CC(C5)C3)C4)cccc2n1 [Compound 51, N-(adamantan-1-ylmethyl)-2-{2-[(2-hydroxy-ethyl)(methyl)amino]-2-oxoethyl}imidazo[1,2-a]pyridine-5-carboxamide]

- IC50 [2]: < 2000 nM
SMILES: CC(C)CNC(=O)Cc1cn2c(C(=O)NCC34CC5CC(CC(C5)C3)C4)cccc2n1 [Compound 18, N-(adamantan-1-ylmethyl)-2-[2 (isobutylamino)-2-oxoethyl]imidazo[1,2-a]pyridine-5-carboxamide]

The next lines start with the molecule.

SMILES: CC(C)CC(CNC(=O)c1cccc2nc(CC(=O)N3CCCC3)cn12)c1ccccc1 (stereo not shown) [Compound 242, N-(4-methyl-2-phenylpentyl)-2-(2-oxo-2-pyrrolidin-1-ylethyl)imidazo[1,2-a]pyridine-5-carboxamide]
- IC50 [1]: < 2000 nM

SMILES: CC1(C)[C@H]2CC[C@@H](CNC(=O)c3cccc4nc(C(=O)N5CCC(N)C5)cn34)[C@@H]1C2 (stereo partly drawn) [Compound 315, 2-[(3-aminopyrrolidin-1-yl)carbonyl]-N-{[(1S,2R,5S)-6,6-dimethylbicyclo[3.1.1]hept-2-yl]methyl}imidazo[1,2-a]pyridine-5-carboxamide]
- IC50 [1]: < 2000 nM

SMILES: CCN(Cc1cn2c(C(=O)NCC34CC5CC(CC(C5)C3)C4)cccc2n1)C(=O)c1nnc[nH]1 [Compound 552, N-(adamantan-1-ylmethyl)-2-{[ethyl(4H-1,2,4-triazol-3-ylcarbonyl)amino]methyl}imidazo[1,2-a]pyridine-5-carboxamide]
- IC50 (50% decrease in the fluorescence response of cells exposed to 80 μM 2′(3′)-O-(4-benzoyl-benzoyl)adenosine 5′-triphosphate, Example 4A, read-out: IC50): < 2000 nM

SMILES: CC(C)CC(CNC(=O)c1cccc2nc(CN3CCOCC3)cn12)C1CCCCC1 (stereo not shown) [Compound 687, N-(2-cyclohexyl-4-methylpentyl)-2-(morpholin-4-ylmethyl)imidazo[1,2-a]pyridine-5-carboxamide]
- IC50 [3]: < 2000 nM

SMILES: CNCCN(C)Cc1cn2c(C(=O)NCC34CC5CC(CC(C5)C3)C4)cccc2n1 [Compound 124, N-(adamantan-1-ylmethyl)-2-({methyl[2-(methylamino)eth-yl]amino}methyl)imi-dazo[1,2-a]pyridine-5-carboxamide]
- IC50: < 2000 nM

SMILES: O=C(NCC12CC3CC(CC(C3)C1)C2)c1cccc2nc(Cn3nnnc3-c3cccnc3)cn12 [Compound 814, N-(adamantan-1-ylmethyl)-2-[(5-pyridin-3-yl-1H-tetrazol-1-yl)methyl]imidazo [1,2-a]pyridine-5-carboxamide]
- IC50 [3]: < 2000 nM
